Measured values as given in patent US9399636B2, “Substituted dipyridylamines and uses thereof” (Genentech, Inc., priority 2012, dated 2016).

Target: T1, DLK (Homo sapiens, UniProt Q12852)
T1 construct: N-terminally GST-tagged DLK (catalytic domain amino acid 1-520) (Carna Bioscience); GST (N); purchased Carna Bioscience
T1 sequence (Q12852 1-520): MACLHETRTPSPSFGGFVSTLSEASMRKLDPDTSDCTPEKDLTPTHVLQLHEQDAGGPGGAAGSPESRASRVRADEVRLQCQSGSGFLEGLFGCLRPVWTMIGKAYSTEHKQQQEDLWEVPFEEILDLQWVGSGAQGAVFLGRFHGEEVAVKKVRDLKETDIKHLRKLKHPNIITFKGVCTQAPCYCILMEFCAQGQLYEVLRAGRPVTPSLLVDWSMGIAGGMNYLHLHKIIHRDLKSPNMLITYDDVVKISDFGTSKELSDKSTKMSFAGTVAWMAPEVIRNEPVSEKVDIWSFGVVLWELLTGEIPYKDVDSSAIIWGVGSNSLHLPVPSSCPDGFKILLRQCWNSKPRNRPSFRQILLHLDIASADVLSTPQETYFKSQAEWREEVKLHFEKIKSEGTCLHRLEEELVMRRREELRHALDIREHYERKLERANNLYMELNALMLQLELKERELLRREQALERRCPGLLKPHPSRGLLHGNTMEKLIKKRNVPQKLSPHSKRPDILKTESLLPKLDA
Assay: DLK TR-FRET assay
Type: biochemical
Details: 5 nM GST-tagged DLK (catalytic domain amino acid 1-520), 40 nM HIS-tagged MKK4 K131M substrate, 30 μM ATP, 60 minutes
How it was run: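 5 nM GST-tagged DLK catalytic domain (aa 1-520) with 40 nM HIS-MKK4 K131M substrate and 30 μM ATP in HEPES pH 7.5/MgCl2 buffer. Compounds tested in 1:3 serial dilution from 20 uM, 60 min at ambient temperature. EDTA quench, then 3 h with Eu-anti-phospho-MKK4 and D2-anti-HIS before TR-FRET read (665/615 nm).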

Cc1cc(C2CCN(C(=O)C(F)(F)F)CC2)cc(Nc2cc(C#N)ccn2)n1 [Example 107, 2-[6-Methyl-1′-(2,2,2-trifluoro-acetyl)-1′,2′,3′,4′,5′,6′-hexahydro-[4,4′]bipyridinyl-2-ylamino]-isonicotinonitrile] was tested. Which Ki did it give?
Its Ki is 120 nM.

FC(F)c1ccnc(Nc2cc(C3CCN(C4COC4)CC3)cc(N3CCC(F)(F)C3)n2)c1 [Example 71, (4-Difluoromethyl-pyridin-2-yl)-[6-(3,3-difluoro-pyrrolidin-1-yl)-1′-oxetan-3-yl-1′,2′,3′,4′,5′,6′-hexahydro-[4,4′]bipyridinyl-2-yl]-amine] was tested. Which Ki did it give?
The Ki was 0.36 nM.

Which Ki does the source give for CC(=O)N1CCC(c2cc(Nc3cc(C)ccn3)nc(-c3cnn(C)c3)c2)CC1 [Example 134, 1-[2′-(1-Methyl-1H-pyrazol-4-yl)-6′-(4-methyl-pyridin-2-ylamino)-3,4,5,6-tetrahydro-2H-[4,4′]bipyridinyl-1-yl]-ethanone] here?
The Ki was 30 nM.

Which Ki does the source give for CC1CCCN1c1cc(C2CCN(C(=O)c3cn(C)cn3)C2)cc(Nc2cc(C(F)(F)F)ccn2)n1 (stereo not drawn) [Example 133, (1-Methyl-1H-imidazol-4-yl)-{3-[2-(2-methyl-pyrrolidin-1-yl)-6-(4-trifluoromethyl-pyridin-2-ylamino)-pyridin-4-yl]-pyrrolidin-1-yl}-methanone] here?
Its Ki is 0.66 nM.

How did the Ki turn out when N#CC1(c2cc(Nc3cc(C(F)F)ccn3)nc(N3CC4CC4C3)c2)CCOCC1 (stereo not drawn) [Example 52, 4-[2-(3-Aza-bicyclo[3.1.0]hex-3-yl)-6-(4-difluoromethyl-pyridin-2-ylamino)-pyridin-4-yl]-tetrahydro-pyran-4-carbonitrile] was run?
The Ki was 2 nM.

N#Cc1ccnc(Nc2cc(C3(C#N)CCOCC3)cc(N3CCC3)n2)c1 [Example 75, 2-[6-Azetidin-1-yl-4-(4-cyano-tetrahydro-pyran-4-yl)-pyridin-2-ylamino]-isonicotinonitrile] was tested. Which Ki did it give?
The Ki was 13 nM.

N#Cc1ccnc(Nc2cc(C3CCN(C4COC4)CC3)ccn2)c1 [Example 124, 2-(1′-Oxetan-3-yl-1′,2′,3′,4′,5′,6′-hexahydro-[4,4′]bipyridinyl-2-ylamino)-isonicotinonitrile] was tested. Which Ki did it give?
Its Ki is 710 nM.

How did the Ki turn out when N#Cc1ccnc(Nc2cc(C3(C#N)CCNCC3)cc(N3CCC3)n2)c1 [Example 38, 6′-Azetidin-1-yl-2′-(4-cyano-pyridin-2-ylamino)-2,3,5,6-tetrahydro-1H-[4,4′]bipyridinyl-4-carbonitrile] was run?
The Ki was 2.2 nM.

Which Ki does the source give for N#Cc1ccnc(Nc2cc(C3CCOCC3)cc(N3CC4(COC4)C3)n2)c1 [Example 82, 2-[6-(2-Oxa-6-aza-spiro[3.3]hept-6-yl)-4-(tetrahydro-pyran-4-yl)-pyridin-2-ylamino]-isonicotinonitrile] here?
Its Ki is 100 nM.

With N#Cc1ccnc(Nc2cc(C3(C#N)CCOCC3)cc(Cl)n2)c1 [Example 77, 2-[6-Chloro-4-(4-cyano-tetrahydro-pyran-4-yl)-pyridin-2-ylamino]-isonicotinonitrile] as the compound, how does the Ki read?
Its Ki is 190 nM.

How did the Ki turn out when CC(=O)N1CCC(c2cc(Nc3cc(C(F)F)ccn3)nc(C3CC3)c2)CC1 [Example 57, 1-[6′-Cyclopropyl-2′-(4-difluoromethyl-pyridin-2-ylamino)-3,4,5,6-tetrahydro-2H-[4,4′]bipyridinyl-1-yl]-ethanone] was run?
The Ki was 3.5 nM.

How did the Ki turn out when N#Cc1ccnc(Nc2cc(C3CCN(C4COC4)CC3)cc(C3CC3)n2)c1 [Example 28, 2-(6-Cyclopropyl-1′-oxetan-3-yl-1′,2′,3′,4′,5′,6′-hexahydro-[4,4′]bipyridinyl-2-ylamino)-isonicotinonitrile] was run?
The Ki was 1.4 nM.

With CN1CCCC(c2cc(Nc3cc(C(F)(F)F)ccn3)nc(N3CCC(F)(F)C3)c2)C1 (stereo not drawn) [Example 138, [6′-(3,3-Difluoro-pyrrolidin-1-yl)-1-methyl-1,2,3,4,5,6-hexahydro-[3,4′]bipyridinyl-2′-yl]-(4-trifluoromethyl-pyridin-2-yl)-amine] as the compound, how does the Ki read?
Its Ki is 0.17 nM.

Which Ki does the source give for Cc1cc(C2CCN(S(C)(=O)=O)CC2)cc(Nc2cc(C#N)ccn2)n1 [Example 109, 2-(1′-Methanesulfonyl-6-methyl-1′,2′,3′,4′,5′,6′-hexahydro-[4,4′]bipyridinyl-2-ylamino)-isonicotinonitrile] here?
The Ki was 140 nM.

For Cc1ccnc(Nc2cc(C3CCN(C4COC4)CC3)cc(N3CCC[C@H]3C)n2)c1 [Example 135, (4-Methyl-pyridin-2-yl)-[6-((R)-2-methyl-pyrrolidin-1-yl)-1′-oxetan-3-yl-1′,2′,3′,4′,5′,6′-hexahydro-[4,4′]bipyridinyl-2-yl]-amine], which Ki is on record?
The Ki was 21 nM.

With CCc1cc(C2CCN(C3COC3)CC2)cc(Nc2cc(C(F)F)ccn2)n1 [Example 26, (4-Difluoromethyl-pyridin-2-yl)-(6-ethyl-1′-oxetan-3-yl-1′,2′,3′,4′,5′,6′-hexahydro-[4,4′]bipyridinyl-2-yl)-amine] as the compound, how does the Ki read?
Its Ki is 21 nM.

With O=C1CCCN1c1cc(C2CCN(C3COC3)CC2)cc(Nc2cc(C(F)F)ccn2)n1 [Example 42, 1-[6-(4-Difluoromethyl-pyridin-2-ylamino)-1′-oxetan-3-yl-1′,2′,3′,4′,5′,6′-hexahydro-[4,4′]bipyridinyl-2-yl]-pyrrolidin-2-one] as the compound, how does the Ki read?
The Ki was 6.4 nM.

For CC1CCCN1c1cc(C2CCN(S(C)(=O)=O)C2)cc(Nc2cc(C(F)(F)F)ccn2)n1 (stereo not drawn) [Example 132, [4-(1-Methanesulfonyl-pyrrolidin-3-yl)-6-(2-methyl-pyrrolidin-1-yl)-pyridin-2-yl]-(4-trifluoromethyl-pyridin-2-yl)-amine], which Ki is on record?
Its Ki is 2.12 nM.

Which Ki does the source give for Cc1ccnc(Nc2cc(C3CCNCC3)cc(N(C)CCO)n2)c1 [Example 144, 2-{Methyl-[6-(4-methyl-pyridin-2-ylamino)-1′,2′,3′,4′,5′,6′-hexahydro-[4,4′]bipyridinyl-2-yl]-amino}-ethanol] here?
Its Ki is 61 nM.

Which Ki does the source give for CC(=O)N1CC(c2cc(Nc3cc(C(F)(F)F)ccn3)nc(N3CCC(F)(F)C3)c2)C1 [Example 127, 1-{3-[2-(3,3-Difluoro-pyrrolidin-1-yl)-6-(4-trifluoromethyl-pyridin-2-ylamino)-pyridin-4-yl]-azetidin-1-yl}-ethanone] here?
The Ki was 2.9 nM.

COC1CN(c2cc(C3(C#N)CCNCC3)cc(Nc3cc(C(F)(F)F)ccn3)n2)C1 [Example 19, 6′-(3-Methoxy-azetidin-1-yl)-2′-(4-trifluoromethyl-pyridin-2-ylamino)-2,3,5,6-tetrahydro-1H-[4,4′]bipyridinyl-4-carbonitrile] was tested. Which Ki did it give?
Its Ki is 5.1 nM.

For N#Cc1ccnc(Nc2cc(C3CCN(C4COC4)CC3)cc(N3CC4(COC4)C3)n2)c1 [Example 98, 2-[6-(2-Oxa-6-aza-spiro[3.3]hept-6-yl)-1′-oxetan-3-yl-1′,2′,3′,4′,5′,6′-hexahydro-[4,4′]bipyridinyl-2-ylamino]-isonicotinonitrile], which Ki is on record?
The Ki was 42.2 nM.

Which Ki does the source give for N#Cc1ccnc(Nc2cc(C3(C#N)CCNCC3)cc(N3CC(F)(F)C3)n2)c1 [Example 37, 2′-(4-Cyano-pyridin-2-ylamino)-6′-(3,3-difluoro-azetidin-1-yl)-2,3,5,6-tetrahydro-1H-[4,4′]bipyridinyl-4-carbonitrile] here?
The Ki was 2.5 nM.

How did the Ki turn out when N#CC1(c2cc(Nc3cc(C(F)(F)F)ccn3)nc(N3CC(F)C3)c2)CCNCC1 [Example 23, 6′-(3-Fluoro-azetidin-1-yl)-2′-(4-trifluoromethyl-pyridin-2-ylamino)-2,3,5,6-tetrahydro-1H-[4,4′]bipyridinyl-4-carbonitrile] was run?
The Ki was 0.32 nM.

For FC(F)c1ccnc(Nc2cc(C3CN(CC(F)(F)F)C3)cc(Cl)n2)c1 [Example 20, {6-Chloro-4-[1-(2,2,2-trifluoro-ethyl)-azetidin-3-yl]-pyridin-2-yl}-(4-difluoromethyl-pyridin-2-yl)-amine], which Ki is on record?
Its Ki is 110 nM.

N#Cc1ccnc(Nc2cc(C3CCN(C4COC4)CC3)cc(N3CCC4(CCOC4)C3)n2)c1 (stereo not drawn) [Example 95, 2-[6-(2-Oxa-7-aza-spiro[4.4]non-7-yl)-1′-oxetan-3-yl-1′,2′,3′,4′,5′,6′-hexahydro-[4,4′]bipyridinyl-2-ylamino]-isonicotinonitrile] was tested. Which Ki did it give?
The Ki was 7.3 nM.

For N#Cc1ccnc(Nc2cc(C3(C#N)CCOCC3)cc(N3CCCC3=O)n2)c1 [Example 47, 2-[4-(4-Cyano-tetrahydro-pyran-4-yl)-6-(2-oxo-pyrrolidin-1-yl)-pyridin-2-ylamino]-isonicotinonitrile], which Ki is on record?
Its Ki is 40 nM.
